Assay results taken from patent US20070179143A1 (priority 2003, published 2007).

Columns and labels:
HCT-15 = assay: Cytotoxicity test to cancer cell lines (SRB method), HCT-15; settings: Homo sapiens, HCT-15, 48 h, read-out: Cytotoxicity ED50 HCT15
Method: (§4) Cytotoxicity to A549 (Korea Research Institute of Chemical Technology), SK-OV-3 (Korea Research Institute of Chemical Technology), SK-MEL-2 (Korea Research Institute of Chemical Technology), HCT-15 (Korea Research Institute of Chemical Technology) and MCF7 (Korean Cell Line Bank, Seoul National University School of medicine) cells was measured by Sulforhodamin-B (SRB) method (1989, National Cancer Institute (NCI)) which was developed for the measurement of in vitro anticancer activity of a drug. Cells were separated using 0.25% trypsin-EDTA solution, leading to the preparation of a cell suspension by 5×10^318 2×10^4 cells/well. Then, the suspension was distributed into a 96 well plate by 100 μl/well, which was cultured in a 37° C., 5% CO2 incubator for 24 hours. Compounds prepared in examples of the present invention were used as a sample. Precisely, the compound was dissolved in dimethylsulfoxide and diluted with RPMI 1640 medium before being used as a sample. The final concentration of the sample used varied ranging 1 μM˜0.00001 μM. The medium was removed from the 96 well plate and then diluted sample solution was added by 100 μl/well, followed by further culture in a 37° C., 5% CO2 incubator for 48 hours. Tz (time zero) plate was collected from the point of adding the sample. Upon completing the culture, the medium was removed from each well along with Tz plate, then 10% trichloroacetic acid (TCA) was added by 100 μl/well. The plate was left at 4° C. for 1 hour to let cells be fixed on the floor of the plate. After cells were fixed completely, the plate was washed with water 5-6 times to remove the remaining trichloroacetic acid solution completely and moisture was completely dried at room temperature. 0.4% Sulforhodamine-B was dissolved in 1% acetic acid solution to prepare a staining solution. Cells were stained for 30 minutes with a dye added by 100 μl to each well of the completely dried plate. Then, the plate was washed with 1% acetic acid solution 5-6 times to remove sulforhodamine-B remained uncombined with cells. Then, the plate was dried at room temperature. 10 mM Tris solution was added by 100 μ/well thereto to dissolve the dye, and optical density (OD) was measured at 520 nm with a micro plate reader.
(§5) ED50 (concentration that inhibits cancer cell growth 50%, 5.0% effective dose, nM/ml) of the sample to cancer cell was calculated as follows. OD value at the point of beginning the culture with the sample was determined as Tz (time zero) value. OD value of a well to be cultured without the sample was determined as a control value (C). OD value of a well pretreated with the sample was determined as experimental value (T). After calculating Tz, C and T, cytotoxicity of the sample was measured by the below <Mathematical Formula 1>. T≦Tz, (T−Tz)/(C−Tz)×100 T>Tz, (T−Tz)/Tz×10,0 <Mathematical Formula 1>
(§6) ED50, the concentration that can inhibit cancer cell growth by 50%, was calculated by using a regression analysis of lotus program based on the degree of cytotoxicity obtained by the <Mathematical Formula 1>.

SK-OV-3 = assay: Cytotoxicity test to cancer cell lines (SRB method), SK-OV-3; format: cell-based; settings: Homo sapiens, SK-OV-3, 48 h, read-out: Cytotoxicity ED50 SK-OV-3
[1] = test system: human lung cancer cell line NCI-H460; assay: Inhibiting effect on tumor growth, NCI-H460 xenografted nude mice
Method: Samples for the experiment were stored in a refrigerator all the time. […] The prepared sample is subject to be precipitated, so that tip sonication was performed right before the administration to disperse it well.
7 week-old female S.P.F. BALB/c nude mice, provided by Charles River Co., Japan, were used as test animals. The test animals were adapted in a Hepa-filter room over a week before the test. The temperature was 21±2° C., humidity was 55±5% and 12-hour light and dark cycle was automatically repeated in that lab. Solid feed (Cheiluedang) was sterilized by radioactive rays and drinking water was also sterilized by autoclave. Feed and water were taken by the animal freely. Cancer cell line used in this experiment was NCI-H460 (human lung tumor cell line) provided by Korea Research Institute of Bioscience and Biotechnology.
The tumor cell line, stored in liquid nitrogen, was thawed and cultured in a 37° C., 5% CO2 incubator for a required time. Upon completing the culture, all the cells were recovered and cell concentration of the culture fluid was adjusted using PBS to 3×10^7 cells/ml. The adjusted cell culture solution was injected hypodermically into armpit between right shoulder girdle and chest wall by 0.3 ml per mouse. From the next day of grafting, NCI-H460 xenografted nude mice were administered intraperitoneal everyday with the sample solution by 0.2 ml/20 g of weight, once a day.
After the grafting of tumor cells, the volume of a tumor in each individual was measured in three dimensions by using a vernier caliper, which was represented in the below <Mathematical Formula 2>. Tumor volume=(length×width×height)/2 <Mathematical Formula 2>
Body weight changes of animal were measured three times a week. Each xenografted nude mouse was sacrificed to separate a tumor, which was then weighed.

[2] = Body weight change of NCI-H460 xenografted nude mice; format: in vivo, BALB/c nude mouse
in vivo = settings: ICR, mouse, in vivo
Method: (§1) 5-week-old ICR mice having the weight of 25-35 g (SPF, SLC Co. Japan) were used as test animals. A pair of female and male of the mice was given for the test of each compound. Group T2, T3, T4 and T5 were arranged (10 animals per group) for the test of acute toxicity of the compound prepared in the Example 12. […] Control group (T1) was administered with only a solvent without the compound of the Example 12.
(§2) For comparison, colchicine was injected in the test animals by the same method as described in the above. The group treated with colchicine was composed of 6 mice.
(§3) Taxol produced by Bristol Myers Sqibb Co. was also used for comparison, and the injection and the test of acute toxicity were performed by the same method as described in the above.

ICR mice = assay: in vivo; settings: for Death Total: ICR mice, 7 days, deaths/animals; for Test Day (Death) 2: deaths on day 2; for Test Day (Death) 1: deaths on day 1
Method: as §1, §2, §3

SK-MEL-2 = assay: Cytotoxicity test to cancer cell lines (SRB method), SK-MEL-2; format: cell-based; settings: Homo sapiens, SK-MEL-2, 48 h, read-out: Cytotoxicity ED50 SK-MEL-2
HUVEC cells = assay: Capillary-like tube formation assay; format: cell-based; settings: HUVEC on matrigel, 24 hours
Method: Matrigel used in this experiment was a product of BioCoat. Matrigel was thawed in a refrigerator for 24 hours before use. Thawing matrigel, 96 well plate and yellow tip were put on ice. Then, matrigel was distributed into each well of the plate by 40 μl. The polymerization of the plate was performed in a 37° C. incubator for 30 minutes. Each well of the plate was inoculated with 180 μl of HUVEC cell solution (2×10^4 cells/m;) along with 20 μl of the compound of the Example 12 in serum-free media (0.3, 1,3, 10 and 30 μg/ml), followed by further culture for 24 hours.
Tube formation was observed under a microscope to investigate inhibition activity of angiogenesis.
Fumagilin and doxorubicin were used as a positive control.

MCF7 = assay: Cytotoxicity test to cancer cell lines (SRB method), MCF7; settings: read-out: Cytotoxicity ED50 MCF-7, MCF-7, 48 hours
Method: as §4, §5, §6

A549 = assay: Cytotoxicity test to cancer cell lines (SRB method), A549; settings: Homo sapiens, A549, 48 h, read-out: Cytotoxicity ED50 A549
[3] = 1 mg/kg intraperitoneal once a day
[4] = 3 mg/kg intraperitoneal once a day
[5] = 10 mg/kg intraperitoneal once a day
[6] = 2.5 mg/kg intraperitoneal once a day

Which EC50 (HCT-15) does the source give for `COc1cc2c(c(OC)c1OC)-c1ccc(SC)c(=O)cc1[C@@H](NC(=O)c1cc(F)cc(CO[N+](=O)[O-])c1)CC2` [Example 12, 3-fluoro-5-nitrooxymethyl-N-[(7S)-1,2,3-trimethoxy-10-methylsulfanyl-9-oxo-5,6,7,9-tetrahydro-benzo[a]heptalen-7-yl]-benzamide] here?
Its EC50 is 0.05 nM.

And the EC50 (SK-OV-3)?
Its EC50 is 0.27 nM.

What about the “Tumor volume Day 0” value [1, 3] of the same compound?
Its value is 0.0 ± 0.0.

And the “Tumor volume Day 4” value [1, 3]?
Its value is 20.7 ± 3.1.

What about the “Tumor volume Day 7” value [1, 3] of the same compound?
Its value is 49.2 ± 12.2.

What about the “Tumor volume Day 9” value [1, 3] of the same compound?
The value was 78.1 ± 13.0.

What about the “Tumor volume Day 11” value [1, 3] of the same compound?
The value was 146.5 ± 8.8.

And the “Tumor Weight Day 14” value [1, 3]?
The value was 950.9 ± 174.8 mg.

And the “Tumor volume Day 14” value [1, 3]?
Its value is 299.3 ± 41.5.

And the “Tumor volume Day 0” value [1, 4]?
The value was 0.0 ± 0.0.

And the “Tumor volume Day 4” value [1, 4]?
The value was 16.9 ± 5.1.

What about the “Tumor volume Day 7” value [1, 4] of the same compound?
Its value is 31.2 ± 11.7.

And the “Tumor volume Day 9” value [1, 4]?
The value was 49.7 ± 15.8.

And the “Tumor volume Day 11” value [1, 4]?
The value was 96.1 ± 26.1.

And the “Tumor Weight Day 14” value [1, 4]?
The value was 714.5 ± 103.8 mg.

And the “Tumor volume Day 14” value [1, 4]?
Its value is 206.8 ± 48.0.

And the “Tumor volume Day 0” value [1, 5]?
Its value is 0.0 ± 0.0.

What about the “Tumor volume Day 4” value [1, 5] of the same compound?
Its value is 16.1 ± 6.7.

What about the “Tumor volume Day 7” value [1, 5] of the same compound?
Its value is 24.6 ± 9.8.

And the “Tumor volume Day 9” value [1, 5]?
The value was 35.2 ± 12.9.

And the “Tumor volume Day 11” value [1, 5]?
Its value is 69.4 ± 26.9.

And the “Tumor Weight Day 14” value [1, 5]?
The value was 390.9 ± 0 mg.

And the “Tumor volume Day 14” value [1, 5]?
The value was 103.0 ± 0.

What about the “size and weight of a tumor (in words)” value ([1]; comparing to solvent only (V.C-1, V.C-2) or positive control (taxol, adriamycin)) of the same compound?
The value was “remarkably decreased”.

And the “Body weight Change Day 1” value [2, 3]?
The value was 100.0 ± 0.0%.

And the “Body weight Change Day 3” value [2, 3]?
The value was 105.0 ± 1.4%.

What about the “Body weight Change Day 7” value [2, 3] of the same compound?
The value was 104.2 ± 5.3%.

What about the “Body weight Change Day 9” value [2, 3] of the same compound?
Its value is 99.6 ± 4.4 %.

And the “Body weight Change Day 11” value [2, 3]?
The value was 97.5 ± 3.6 %.

What about the “Body weight Change Day 14” value [2, 3] of the same compound?
Its value is 98.3 ± 3.2 %.

And the “Body weight Change Day 1” value [2, 4]?
Its value is 100.0 ± 0.0%.

What about the “Body weight Change Day 3” value [2, 4] of the same compound?
Its value is 102.8 ± 2.0%.

What about the “Body weight Change Day 7” value [2, 4] of the same compound?
The value was 101.8 ± 4.2 %.

What about the “Body weight Change Day 9” value [2, 4] of the same compound?
Its value is 99.3 ± 3.3 %.

And the “Body weight Change Day 11” value [2, 4]?
The value was 99.1 ± 2.8 %.

And the “Body weight Change Day 14” value [2, 4]?
Its value is 94.5 ± 3.9 %.

And the “Body weight Change Day 1” value [2, 5]?
Its value is 100.0 ± 0.0%.

And the “Body weight Change Day 3” value [2, 5]?
The value was 103.9 ± 0.9%.

What about the “Body weight Change Day 7” value [2, 5] of the same compound?
The value was 92.2 ± 3.5 %.

What about the “Body weight Change Day 9” value [2, 5] of the same compound?
Its value is 89.4 ± 2.0 %.

What about the “Body weight Change Day 11” value [2, 5] of the same compound?
Its value is 92.3 ± 2.9 %.

And the “Body weight Change Day 14” value [2, 5]?
The value was 93.4 ± 0%.

What about the “decrease of the weight of the mouse” value ([2]; comparing to solvent only or positive control) of the same compound?
Its value is “about 10%”.

And the LD50 (in vivo; both)?
The LD50 was 60 mg/kg.

What about the “Death Total” value (ICR mice; 30 mg/kg into the abdominal cavity) of the same compound?
The value was 0/10.

What about the “Death Total” value (ICR mice; 40 mg/kg into the abdominal cavity) of the same compound?
Its value is 0/10.

What about the “Death Total” value (ICR mice; 50 mg/kg into the abdominal cavity) of the same compound?
Its value is 0/10.

What about the “Death Total” value (ICR mice; 60 mg/kg into the abdominal cavity) of the same compound?
Its value is 0/10.

And the “times as weak toxicity as that of colchicine” value (ICR mice; ratio of LD50)?
Its value is 30 times.

What about the EC50 (SK-MEL-2) of the same compound?
Its EC50 is 0.11 nM.

And the “dosage that totally inhibited angiogenesis” value (HUVEC cells)?
Its value is “over 10 μg/ml”.

And the “dosage with angiogenesis inhibition activity” value (HUVEC cells; as good effect as fumagilin at 10 μg/ml)?
The value was “over 0.3 μg/ml”.

What about the EC50 (MCF7) of the same compound?
Its EC50 is 0.03 nM.

What about the EC50 (A549) of the same compound?
Its EC50 is 0.05 nM.

Which results are given for `CC(=O)O[C@H]1C(=O)[C@@]2(C)[C@H]([C@H](OC(=O)c3ccccc3)[C@]3(O)C[C@H](OC(=O)[C@H](O)[C@@H](NC(=O)c4ccccc4)c4ccccc4)C(C)=C1C3(C)C)[C@]1(OC(C)=O)CO[C@@H]1C[C@@H]2O` [Paclitaxel, reference compound]?
EC50 (HCT-15): 0.1 nM; EC50 (SK-OV-3): 1.2 nM; Body weight Change Day 1 [2, 6]: 100.0 ± 0.0%; Body weight Change Day 3 [2, 6]: 106.0 ± 1.5%; Body weight Change Day 7 [2, 6]: 99.2 ± 4.0 %; Body weight Change Day 9 [2, 6]: 97.1 ± 0%; LD50 (in vivo; iv): 9 to 13 mg/kg; Death Total (ICR mice; 4.0 mg/kg): 0/5; Death Total (ICR mice; 6.0 mg/kg): 1/5; Test Day (Death) 2 (ICR mice; 6.0 mg/kg): 1; Death Total (ICR mice; 9.0 mg/kg): 2/5; Test Day (Death) 5 (ICR mice; 9.0 mg/kg, deaths on day 5): 2; Death Total (ICR mice; 13.0 mg/kg): 4/5; Test Day (Death) 1 (ICR mice; 13.0 mg/kg): 2; Test Day (Death) 2 (ICR mice; 13.0 mg/kg): 2; Death Total (ICR mice; 20.0 mg/kg): 5/5; Test Day (Death) 1 (ICR mice; 20.0 mg/kg): 5; EC50 (SK-MEL-2): 0.1 nM; EC50 (MCF7): 0.9 nM; EC50 (A549): 0.3 nM
